Measurements: patent publication US9409952B2, “Peptide-compound cyclization method” (Chugai Seiyaku Kabushiki Kaisha, priority 2011, dated 2016)
Read-outs that look alike come from different tables or passages of the source. Starred links: 1 amine or outer side, 2 acyl side, 3 side chain; linkers in the order of their positions; H or OH if unused. Positions of bridges follow the written chain, without caps; N, C: chain ends. Non-standard residues stand in square brackets, D forms with d. Residues, ends and D or L forms follow the SMILES beside them. *: point of attachment. NMeF = CN[C@@H](Cc1ccccc1)C(=O)O; NMeGABA = CN(CCCC(=O)[*:2])[*:1]; NMeI = CC[C@H](C)[C@H](NC)C(=O)O; NMeL = CN[C@@H](CC(C)C)C(=O)O; NMeV = CN[C@H](C(=O)O)C(C)C; NMeA = CN[C@@H](C)C(=O)O; Piperidide = C1CCN(*)CC1; dNMeA = CN[C@H](C)C(=O)O; Sar = CNCC(=O)O; tBu = CC(C)(C)*

How the values were obtained:
[1] = PAMPA (parallel artificial membrane permeability assay); type: in vitro ADME; conditions: for Papp at 18 hours, 50 µM: PAMPA
In short: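 Artificial membrane was 10% (w/v) egg lecithin plus 0.5% (w/v) cholesterol in dodecane on a PVDF filter. A 10 mM DMSO stock was added at 0.5% (v/v) to donor buffer (50 mM MOPSO, pH 6.5, 5.0% glycocholic acid). After 18 h at 37 °C, LC/MS or LC/UV gave donor and acceptor levels for Pe.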

[2] = Metabolic stability in human hepatic microsome; type: in vitro ADME; conditions: microsomes
[3] = membrane permeation rate (Pe), 50 mM MOPSO buffer pH 6.5 with 5.0% glycocholic acid, 37° C., 18 hours, read-out: iPAMPA Pe
[4] = pH 7.4, human hepatic microsome, NADPH(+), read-out: CL NADPH(+)

| Structure (SMILES) | Papp at 18 hours, 50 µM [1, 3] [×10⁻⁶ cm/s] | microsomal CLint at 1 uM [2, 4] [µL/min/mg] | iPAMPA Pe ([1]; membrane permeation rate (Pe), 50 mM MOPSO buffer pH 6.5 with 5.0% glycocholic acid, 37° C., 18 hours) | Papp at 18 hours, 50 µM ([1]; pH 6.5) [×10⁻⁶ cm/s] | microsomal CLint at 1 uM ([2]; human, pH 7.4, CL NADPH(+)) [µL/min/mg] |
| --- | --- | --- | --- | --- | --- |
| CC[C@H](C)[C@@H]1NC(=O)[C@H](CC(C)C)N(C)C(=O)CN(C)C(=O)[C@H]([C@@H](C)O)NC(=O)[C@H](C)N(C)C(=O)C[C@@H](C(=O)N(C)[C@@H](C)C(=O)N2CCC[C@H]2C(=O)N[C@@H](C)C(=O)N2CCCCC2)NC(=O)[C@H](CC(C)C)N(C)C(=O)[C@H](Cc2ccccc2)N(C)C(=O)[C@H](CC(C)C)N(C)C1=O [DP-661] ([NMeA]T[Sar][NMeL]I[NMeL][NMeF][NMeL]D[NMeA]PA-Piperidide; lactam N-9) | 25 | 17 | – | – | – |
| CC[C@H](C)[C@@H]1NC(=O)[C@H](CC(C)C)N(C)C(=O)CN(C)C(=O)[C@H]([C@@H](C)O)NC(=O)[C@H](C)N(C)C(=O)C[C@@H](C(=O)N[C@@H](C)C(=O)N2CCC[C@H]2C(=O)N[C@@H](C)C(=O)N2CCCCC2)NC(=O)[C@H](CC(C)C)N(C)C(=O)[C@H](Cc2ccccc2)N(C)C(=O)[C@H](CC(C)C)N(C)C1=O [DP-662] ([NMeA]T[Sar][NMeL]I[NMeL][NMeF][NMeL]DAPA-Piperidide; lactam N-9) | 18 | 101 | – | – | – |
| CC[C@H](C)[C@@H]1NC(=O)[C@H](CC(C)C)N(C)C(=O)CN(C)C(=O)[C@H]([C@@H](C)O)NC(=O)[C@H](C)N(C)C(=O)C[C@@H](C(=O)N[C@@H](C)C(=O)N2CCCCC2)NC(=O)[C@H](CC(C)C)N(C)C(=O)[C@H](Cc2ccccc2)N(C)C(=O)[C@H](CC(C)C)N(C)C1=O [DP-664] ([NMeA]T[Sar][NMeL]I[NMeL][NMeF][NMeL]DA-Piperidide; lactam N-9) | – | 304 | 7.0E−05 | – | – |
| CC[C@H](C)[C@@H]1NC(=O)[C@H](C)NC(=O)C[C@@H](C(=O)N(C)[C@@H](C)C(=O)N[C@H](C(=O)N2CCC[C@H]2C(=O)N[C@H](C(=O)N[C@@H](C)C(=O)N2CCCCC2)C(C)C)[C@@H](C)CC)NC(=O)[C@@H]2CCCN2C(=O)[C@H](CC(C)C)NC(=O)[C@H](Cc2ccccc2)N(C)C(=O)[C@H]([C@@H](C)O)NC(=O)[C@H](Cc2ccccc2)N(C)C(=O)[C@H](C)N(C)C1=O [DP-665] (AI[NMeA][NMeF]T[NMeF]LPD[NMeA]IPVA-Piperidide; lactam N-9) | – | – | – | 4 | 77 |
| CC[C@H](C)[C@H](NC(=O)[C@H](CC(C)C)NC(=O)[C@H](Cc1ccccc1)NC(=O)[C@@H]1CC(=O)N[C@@H](C)C(=O)N[C@@H]([C@@H](C)CC)C(=O)N(C)[C@@H](C)C(=O)N(C)[C@@H](Cc2ccccc2)C(=O)N[C@@H]([C@@H](C)O)C(=O)N(C)[C@@H](Cc2ccccc2)C(=O)N[C@@H](CC(C)C)C(=O)N2CCC[C@H]2C(=O)N1)C(=O)N[C@@H](C)C(=O)N1CCCCC1 [DP-666] (AI[NMeA][NMeF]T[NMeF]LPDFLIA-Piperidide; lactam N-9) | – | – | – | 3 | 74 |
| CC[C@H](C)[C@@H]1NC(=O)[C@H](C)NC(=O)C[C@@H](C(=O)N(C)[C@@H](CC(C)C)C(=O)N(C)[C@@H](C)C(=O)N(C)[C@@H](Cc2ccccc2)C(=O)N[C@@H](C)C(=O)N2CCCCC2)NC(=O)[C@@H]2CCCN2C(=O)[C@H](CC(C)C)NC(=O)[C@H](Cc2ccccc2)N(C)C(=O)[C@H]([C@@H](C)O)NC(=O)[C@H](Cc2ccccc2)N(C)C(=O)[C@H](C)N(C)C1=O [DP-667] (AI[NMeA][NMeF]T[NMeF]LPD[NMeL][NMeA][NMeF]A-Piperidide; lactam N-9) | 19 | 39 | – | – | – |
| CC[C@H](C)[C@H](NC(=O)[C@H](C)N(C)C(=O)[C@@H]1CC(=O)N[C@@H](C)C(=O)N[C@@H]([C@@H](C)CC)C(=O)N(C)[C@@H](C)C(=O)N(C)[C@@H](Cc2ccccc2)C(=O)N[C@@H]([C@@H](C)O)C(=O)N(C)[C@@H](Cc2ccccc2)C(=O)N[C@@H](CC(C)C)C(=O)N2CCC[C@H]2C(=O)N1)C(=O)N1CCCCC1 [DP-668] (AI[NMeA][NMeF]T[NMeF]LPD[NMeA]I-Piperidide; lactam N-9) | – | – | – | 26 | 142 |
| CC[C@H](C)[C@H](NC(=O)[C@@H]1CC(=O)N[C@@H](C)C(=O)N[C@@H]([C@@H](C)CC)C(=O)N(C)[C@@H](C)C(=O)N(C)[C@@H](Cc2ccccc2)C(=O)N[C@@H]([C@@H](C)O)C(=O)N(C)[C@@H](Cc2ccccc2)C(=O)N[C@@H](CC(C)C)C(=O)N2CCC[C@H]2C(=O)N1)C(=O)N1CCCCC1 [DP-669] (AI[NMeA][NMeF]T[NMeF]LPDI-Piperidide; lactam N-9) | – | – | – | 29 | 54 |
| CC[C@H](C)[C@H]1C(=O)N(C)[C@@H](CC(C)C)C(=O)N[C@@H](Cc2ccccc2)C(=O)N[C@@H]([C@@H](C)O)C(=O)N[C@@H](CC(C)C)C(=O)N(C)[C@@H](Cc2ccccc2)C(=O)N(C)[C@@H](C(C)C)C(=O)N[C@H](C(=O)N(C)CC(=O)N(C)[C@@H](C)C(=O)N(C)[C@@H](CC(C)C)C(=O)N[C@@H](C)C(=O)N2CCCCC2)CC(=O)N[C@H](C)C(=O)N[C@@H](C)C(=O)N1C [DP-670] ([dA]A[NMeI][NMeL]FTL[NMeF][NMeV]D[Sar][NMeA][NMeL]A-Piperidide; lactam N-10) | 12 | 22 | – | – | – |
| CC[C@H](C)[C@H]1C(=O)N(C)[C@@H](CC(C)C)C(=O)N[C@@H](Cc2ccccc2)C(=O)N[C@@H]([C@@H](C)O)C(=O)N[C@@H](CC(C)C)C(=O)N(C)[C@@H](Cc2ccccc2)C(=O)N(C)[C@@H](C(C)C)C(=O)N[C@H](C(=O)N2CCC[C@H]2C(=O)N[C@H](C(=O)N[C@@H](C)C(=O)N2CCCCC2)C(C)C)CC(=O)N[C@H](C)C(=O)N[C@@H](C)C(=O)N1C [DP-671] ([dA]A[NMeI][NMeL]FTL[NMeF][NMeV]DPVA-Piperidide; lactam N-10) | 16 | 39 | – | – | – |
| CC[C@H](C)[C@H]1C(=O)N(C)[C@@H](CC(C)C)C(=O)N[C@@H](Cc2ccccc2)C(=O)N[C@@H]([C@@H](C)O)C(=O)N[C@@H](CC(C)C)C(=O)N(C)[C@@H](Cc2ccccc2)C(=O)N(C)[C@@H](C(C)C)C(=O)N[C@H](C(=O)N(C)CC(=O)N[C@@H](C)C(=O)N2CCCCC2)CC(=O)N[C@H](C)C(=O)N[C@@H](C)C(=O)N1C [DP-672] ([dA]A[NMeI][NMeL]FTL[NMeF][NMeV]D[Sar]A-Piperidide; lactam N-10) | 13 | 72 | – | – | – |
| CC(C)C[C@@H]1NC(=O)[C@H](C)NC(=O)C[C@@H](C(=O)N2CCCCC2)NC(=O)[C@H](Cc2ccccc2)N(C)C(=O)[C@H](CC(C)C)N(C)C(=O)[C@H](C)NC(=O)[C@H](Cc2ccccc2)N(C)C(=O)[C@H](CC(C)C)N(C)C1=O [DP-673] (AL[NMeL][NMeF]A[NMeL][NMeF]D-Piperidide; lactam N-8) | 30 | 631 | – | – | – |
| CC(C)C[C@H]1C(=O)N(C)[C@@H](C)C(=O)N(C)[C@@H](Cc2ccccc2)C(=O)N[C@@H](COC(C)(C)C)C(=O)N[C@H](C(=O)N2CCCCC2)CC(=O)N(C)CCCC(=O)N[C@@H]([C@@H](C)O)C(=O)N1C [DP-677] ([NMeGABA]T[NMeL][NMeA][NMeF]S(tBu)D-Piperidide; lactam N-7) | 7.2 | 45 | – | – | – |
| CC(C)C[C@H]1C(=O)N[C@H](C(=O)N2CCCCC2)CC(=O)N(C)[C@@H](C)C(=O)N(C)[C@@H](Cc2ccccc2)C(=O)N(C)[C@@H](CC(C)C)C(=O)N[C@@H]([C@@H](C)O)C(=O)N(C)[C@@H](C)C(=O)N1C [DP-678] ([NMeA][NMeF][NMeL]T[NMeA][NMeL]D-Piperidide; lactam N-7) | 26 | 284 | – | – | – |
| CC(C)C[C@H]1C(=O)N(C)[C@@H](CC(C)C)C(=O)N[C@H](C(=O)N2CCCCC2)CC(=O)N(C)[C@@H](C)C(=O)N(C)[C@@H](Cc2ccccc2)C(=O)N(C)[C@@H](CC(C)C)C(=O)N[C@@H]([C@@H](C)O)C(=O)N1C [DP-679] ([NMeA][NMeF][NMeL]T[NMeL][NMeL]D-Piperidide; lactam N-7) | 25 | 342 | – | – | – |
| CC(C)C[C@H]1C(=O)N[C@H](C(=O)N2CCCCC2)CC(=O)N(C)CCCC(=O)N(C)[C@@H](Cc2ccccc2)C(=O)N[C@@H]([C@@H](C)O)C(=O)N(C)[C@@H](C)C(=O)N[C@@H](COC(C)(C)C)C(=O)N1C [DP-680] ([NMeGABA][NMeF]T[NMeA]S(tBu)[NMeL]D-Piperidide; lactam N-7) | 15 | 96 | – | – | – |
| CC(C)C[C@H]1C(=O)N[C@H](C(=O)N2CCCCC2)CC(=O)N(C)CCCC(=O)N(C)[C@@H](Cc2ccccc2)C(=O)N[C@@H]([C@@H](C)O)C(=O)N(C)[C@@H](CC(C)C)C(=O)N[C@@H](COC(C)(C)C)C(=O)N1C [DP-681] ([NMeGABA][NMeF]T[NMeL]S(tBu)[NMeL]D-Piperidide; lactam N-7) | 28 | 275 | – | – | – |
| CC(C)C[C@H]1C(=O)N[C@H](C(=O)N2CCCCC2)CC(=O)N(C)[C@H](C)C(=O)N(C)[C@@H](Cc2ccccc2)C(=O)N(C)[C@@H](CC(C)C)C(=O)N[C@@H]([C@@H](C)O)C(=O)N(C)[C@@H](C)C(=O)N[C@@H](COC(C)(C)C)C(=O)N1C [DP-682] ([dNMeA][NMeF][NMeL]T[NMeA]S(tBu)[NMeL]D-Piperidide; lactam N-8) | 13 | 20 | – | – | – |
